Test results as given in US6451736B1, “Substituted aromatic thiocarboxylic acid amides and their use as herbicides” (Bayer Aktiengesellschaft, priority 1994, dated 2002).

What was measured:
Format in all cases: in vivo
Maize [1] = test: Post-emergence test/greenhouse; conditions: Table C, after three weeks
Description: (§1) To produce a suitable preparation of active compound, 1 part by weight of active compound is mixed with the stated amount of solvent, the stated amount of emulsifier is added and the concentrate is diluted with water to the desired concentration.
(§2) Test plants which have a height of 5-15 cm are sprayed with the preparation of active compound in such a way as to apply the particular amounts of active compound desired per unit area. After three weeks, the degree of damage to the plants is rated in % damage in comparison to the development of the untreated control.
(§3) 0%=no action (like intreated control)

Amaranthus [2] = test: Post-emergence test/greenhouse; conditions: Table C, after three weeks
Description: as §1, §2, §3

Chenopodium [3] = test: Post-emergence test/greenhouse; conditions: Table C, after three weeks
Description: as §1, §2, §3

Abuthilon [4] = test: Post-emergence test/greenhouse; conditions: Table C, after three weeks
Description: as §1, §2, §3

Veronica = test: Post-emergence test/greenhouse; conditions: Table C, after three weeks
Description: as §1, §2, §3

Wheat [5] = test: Post-emergence test/greenhouse; conditions: Table C, after three weeks
Description: as §1, §2, §3

Solanum [6] = test: Post-emergence test/greenhouse; conditions: Table C, after three weeks
Description: as §1, §2, §3

Maize [7] = test: Pre-emergence test/greenhouse; conditions: Table B, after three weeks
Description: as §1
(§4) Seeds of the test plants are sown in normal soil and, after 24 hours, watered with the preparation of active compound. It is expedient to keep constant the amount of water per unit area. The concentration of the active compound in the preparation is of no importance, only the amount of active compound applied per unit area being decisive. After three weeks, the degree of damage to the plants is rated in % damage in comparison to the development of the untreated control. The figures denote:
(§5) 0%=no action (like untreated control)

Amaranthus [8] = test: Pre-emergence test/greenhouse; conditions: Table B, after three weeks
Description: as §1, §4, §5

Chenopodium [9] = test: Pre-emergence test/greenhouse; conditions: Table B, after three weeks
Description: as §1, §4, §5

Abuthilon [10] = test: Pre-emergence test/greenhouse; conditions: Table B, after three weeks
Description: as §1, §4, §5

Portulaca = test: Pre-emergence test/greenhouse; conditions: Table B, after three weeks
Description: as §1, §4, §5

Matricaria = test: Pre-emergence test/greenhouse; conditions: Table B, after three weeks
Description: as §1, §4, §5

Wheat [11] = test: Pre-emergence test/greenhouse; conditions: Table B, after three weeks
Description: as §1, §4, §5

Solanum [12] = test: Pre-emergence test/greenhouse; conditions: Table B, after three weeks
Description: as §1, §4, §5

| SMILES | degree of damage, Maize (Maize [1]; 15 g/ha) | degree of damage, Amaranthus (Amaranthus [2]; 15 g/ha) | degree of damage, Chenopodium (Chenopodium [3]; 15 g/ha) | degree of damage, Abuthilon (Abuthilon [4]; 15 g/ha) | degree of damage, Veronica (Veronica; 15 g/ha) | degree of damage, Maize (Maize [1]; 60 g/ha) | degree of damage, Amaranthus (Amaranthus [2]; 60 g/ha) | degree of damage, Chenopodium (Chenopodium [3]; 60 g/ha) | degree of damage, Abuthilon (Abuthilon [4]; 60 g/ha) | degree of damage, Veronica (Veronica; 60 g/ha) | degree of damage, Wheat (Wheat [5]; 60 g/ha) | degree of damage, Solanum (Solanum [6]; 60 g/ha) | degree of damage, Maize (Maize [7]; 60 g/ha) | degree of damage, Amaranthus (Amaranthus [8]; 60 g/ha) | degree of damage, Chenopodium (Chenopodium [9]; 60 g/ha) | degree of damage, Abuthilon (Abuthilon [10]; 60 g/ha) | degree of damage, Portulaca (Portulaca; 60 g/ha) | degree of damage, Matricaria (Matricaria; 60 g/ha) | degree of damage, Wheat (Wheat [11]; 60 g/ha) | degree of damage, Solanum (Solanum [12]; 60 g/ha) | other results |
| --- | --- | --- | --- | --- | --- | --- | --- | --- | --- | --- | --- | --- | --- | --- | --- | --- | --- | --- | --- | --- | --- |
| CCS(=O)(=O)Nc1cc(-n2nc3n(c2=O)CCCC3)c(F)cc1C(N)=S [Example 1, 2-(2-fluoro-5-ethylsulphonylamino-4-thiocarbamoyl-phenyl)-5,6,7,8-tetrahydro-1,2,4-triazolo[4,3-a]pyridin-3(2H)-one] | 50% | 95% | 95% | 100% | 100% |  |  |  |  |  |  |  |  |  |  |  |  |  |  |  | degree of damage, Wheat (Wheat [5]; 15 g/ha): 10%; degree of damage, Solanum (Solanum [6]; 15 g/ha): 100%; degree of damage, Maize (Maize [7]; 125 g/ha): 0%; degree of damage, Amaranthus (Amaranthus [8]; 125 g/ha): 100%; degree of damage, Chenopodium (Chenopodium [9]; 125 g/ha): 100%; degree of damage, Abuthilon (Abuthilon [10]; 125 g/ha): 100%; degree of damage, Portulaca (Portulaca; 125 g/ha): 100%; degree of damage, Matricaria (Matricaria; 125 g/ha): 95%; degree of damage, Wheat (Wheat [11]; 125 g/ha): 0%; degree of damage, Solanum (Solanum [12]; 125 g/ha): 100% |
| Cn1c(C(F)F)nn(-c2cc(F)c(C(N)=S)cc2F)c1=S [Example 8] |  |  |  |  |  | 30% | 100% | 100% | 100% | 100% | 10% | 100% | 0% | 100% | 100% | 100% | 95% | 95% | 40% | 100% |  |
| CCS(=O)(=O)Nc1cc(-n2nc(C(F)F)n(C)c2=O)c(F)cc1C(N)=S [Example 9] |  |  |  |  |  | 30% | 100% | 100% | 100% | 100% | 10% | 100% | 0% | 100% | 100% | 100% | 90% | 95% | 0% | 100% |  |
| CCOc1cc(-n2nc3n(c2=O)CCCC3)c(F)cc1C(N)=S [Example 12] |  |  |  |  |  |  |  |  |  |  |  |  | 0% | 70% | 100% | 70% | 95% | 95% | 20% | 70% | degree of damage, Maize (Maize [1]; 8 g/ha): 30%; degree of damage, Amaranthus (Amaranthus [2]; 8 g/ha): 100%; degree of damage, Chenopodium (Chenopodium [3]; 8 g/ha): 95%; degree of damage, Abuthilon (Abuthilon [4]; 8 g/ha): 100%; degree of damage, Veronica (Veronica; 8 g/ha): 100%; degree of damage, Wheat (Wheat [5]; 8 g/ha): 10%; degree of damage, Solanum (Solanum [6]; 8 g/ha): 100% |
| CCS(=O)(=O)Nc1cc(-n2nc(C3CC3)n(C)c2=O)c(F)cc1C(N)=S [Example 13] | 30% | 100% | 80% | 95% | 90% |  |  |  |  |  |  |  | 0% | 100% | 100% | 100% | 90% | 70% | 0% | 100% | degree of damage, Wheat (Wheat [5]; 15 g/ha): 0%; degree of damage, Solanum (Solanum [6]; 15 g/ha): 100% |
| CCn1c(C(F)(F)F)nn(-c2cc(N(C)S(=O)(=O)CC)c(C(N)=S)cc2F)c1=O [Example 16] |  |  |  |  |  | 60% | 100% | 100% | 95% | 100% | 20% | 100% | 0% | 20% | 100% | 95% | 80% | 90% | 10% | 80% |  |
